From US6242199A, “Assays for growth hormone secretagogue receptors” (Merck & Co., Inc., priority 1998, dated 2001)

Columns and labels:
[1] = target: T1, growth hormone secretagogue receptor (GHSR), rat pituitary membranes (Rattus norvegicus, UniProt O08725); experiment: [35S]-Compound A radioreceptor binding, rat pituitary membranes
T1 construct: from the Wistar male rats (150-200 g); from tissue; host or cells: pituitary glands of male Wistar rats (150-200 g), crude membranes
Protocol: [^35 S]-Compound A was prepared from an appropriate precursor, N-[1(R)-[(1,2-dihydrospiro[3H-indole-3,4'-piperidin]-1'-yl)-carbonyl]-2-(phenyl-methyloxy)ethyl]-2-amino-t-butoxycarbonyl-2-methylpropanamide, using methane [^35 S]sulfonyl chloride as described in Dean DC, et al., 1995, In: Allen J, Voges R (eds) Synthesis and Applications of Isotopically Labelled Compounds, John Wiley & Sons, New York, pp. 795-801, Purification by semi-preparative HPLC (Zorbax SB-phenyl column, 68% MeOH/water, 0.1% TFA, 5 ml/min) was followed by N-t-BOC cleavage using 15% trifluroacetic acid in dichloromethane (25° C., 3 hr) to give [methylsulfonyl-^35 S]Compound A in near quantitative yield. HPLC purification (Hamilton PRP-1 4.6×250 mm column, linear gradient of 50-75% methanol-water with 1 mM HCl over 30 min, 1.3 ml/min) provided the ligand in >99% radiochemical purity. The structure was established by HPLC coelution with unlabeled Compound A and by mass spectral analysis. The latter method also indicated a specific activity of ~1000 Ci/mmol.
Frozen anterior pituitary glands from male swine (50-80 Kg) or from the Wistar male rats (150-200 g) were homogenized in a tissue homogenizer in ice-cold buffer (50 mM Tris-HCl buffer, pH 7.4, 5 mM MgCl2, 2.5 mM EDTA, 0.1% bovine serum albumin and 30 μg/ml bacitracin). The homogenates were centrifuged for 5 min at 1,400×g and the resulting supernatants were then centrifuged at 34,000×g for 20 min. The pellets were resuspended in same buffer to a 1,500 μg protein/ml and stored at -80° C. Protein was determined by a Bio-Rad method (Bio-Rad Laboratories, Richmond, Calif.).
The standard binding solution contained: […] of 25 mM Tris-HCl buffer, pH 7.4, 10 mM MgCl2, 2.5 mM EDTA, and 100 pM [^35 S]-Compound A. Pituitary membranes (100 μl, 150 μg protein) were added to initiate the binding reaction. […] The filters were washed three times with 3-ml of ice-cold buffer (50 mM Tris-HCl, pH 7.4, 10 mM MgCl2, 2.5 mM EDTA and 0.015% Triton X-100) and the radioactivity on the filters were counted in Aquasol 2. […]

rat GHSR type Ia = experiment: Aequorin bioluminescence in transfected 293-AEQ17 (HEK-293) cells, rat GHSR; format: cell-based; details: three replicate samples; mobilization of intracellular calcium
Protocol: Functional activity of the ORF construct was assessed by transfecting (using lipofectamine; GIBCO/BRL) 5 μg of plasmid DNA into the aequorin expressing reporter cell line (293-AEQ17) cultured in 60 mm dishes. Following approximately 40 hours of expression the aequorin in the cells was charged for 2 hours with coelenterazine, the cells were harvested, washed and pelleted by low speed centrifugation into luminometer tubes. Functional activity was determined by measuring Compound A dependent mobilization of intracellular calcium and concommitant calcium induced aequorin bioluminescence.

T1 sequence (O08725 whole entry): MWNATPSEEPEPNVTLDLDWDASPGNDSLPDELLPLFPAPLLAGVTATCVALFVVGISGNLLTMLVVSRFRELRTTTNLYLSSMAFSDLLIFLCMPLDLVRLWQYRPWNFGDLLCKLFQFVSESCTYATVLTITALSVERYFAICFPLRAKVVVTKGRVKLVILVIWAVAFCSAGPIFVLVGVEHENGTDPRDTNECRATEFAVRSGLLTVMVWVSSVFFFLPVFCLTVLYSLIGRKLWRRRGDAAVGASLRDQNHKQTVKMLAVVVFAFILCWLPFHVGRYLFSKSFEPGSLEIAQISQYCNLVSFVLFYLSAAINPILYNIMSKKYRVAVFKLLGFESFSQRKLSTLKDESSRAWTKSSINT

specific binding of total binding ([1]; rat membranes, nonspecific in 500 nM unlabeled Compound A): 45-60%
Bmax ([1]; rat pituitary membranes, n=3): 2.3±1.1 fmol/mg protein
Kd ([1]; rat pituitary membranes, n=3): 0.18 ± 0.009 nM
Structure (SMILES): CC(C)(N)C(=O)N[C@H](COCc1ccccc1)C(=O)N1CCC2(CC1)CN(S(C)(=O)=O)c1ccccc12 [Compound A, (N-[1(R)-[1,2-dihydro-1-methanesulfonlylspiro[3H-indole-3,4'-piperidin]-1'-yl)carbonyl]-2-(phenylmethyloxy)-ethyl]-2-amino-2-methyl-propanamide]
Compound A induced luminescent response (in words) (rat GHSR type Ia): Compound A induced luminescent responses
